Data: patent EP0264038A1, “Cytostatics containing glycidyl groups” (Henkel Kommanditgesellschaft auf Aktien, priority 1986, dated 1988)

Tested on: Tumorart P 388 (Leukämie)
Assay: Cytostatic activity: survival of mice with i.p. implanted P 388 leukemia (NCI protocol 1200)
Assay type: in vivo, Mäusen
Settings: 9-day treatment, P 388 set i.p. with 10⁶ Zellen/Maus, untreated mean survival 10 days
Text: Die nachfolgenden Versuche wurden durchgeführt nach Testvorschriften des National Cancer Institute Bethesda, Maryland 200014, veröffentlicht in "Cancer Chemotherapy Reports" Part. 3, Sept. 1972, Vol. 3, Nr. 2.
Die Substanz wurde als wäßrige 1 %ige Injektionslösung unmittelbar vor der Applikation frisch hergestellt.
Bei Mäusen wurden gemäß Protokoll 1200 (S. 91 c) die Tumorart P 388 (Leukämie) i.p. mit 10⁶ Zellen/Maus gesetzt. Die unbehandelten Tiere hatten eine mittlere Überlebensdauer von 10 Tagen.
Mit den behandelten Testtieren, die einer 9-tägigen i.p. Behandlung mit der in Tabelle 1 angegebenen Dosis unterworfen wurden, wurde eine signifikante Verlängerung der Lebensdauer gegenüber der mittleren Überlebensdauer der nicht mit dem Wirkstoff behandelten Tiere erzielt. Die Verlängerungsrate T/C in Abhängigkeit von der Dosierung des Wirkstoffes ist nachtstehend tabellarisch zusammengestellt.

## O=P(CC1CO1)(CC1CO1)CC1CO1 (stereo not drawn) [Triglycidylphosphinoxid]
Dosis 15 mg/kg
  Verlängerungsrate T/C in %: 243%
Dosis 3,75 mg/kg
  Verlängerungsrate T/C in %: 163%
Dosis 7,5 mg/kg
  Verlängerungsrate T/C in %: 176%
